16 compounds from ChEMBL document CHEMBL5528043, “Development of Potent Mcl-1 Inhibitors: Structural Investigations on Macrocycles Originating from a DNA-Encoded Chemical Library Screen” (J Med Chem, 2024) can be followed below.

The target in data set [1] is Induced myeloid leukemia cell differentiation protein Mcl-1 (Homo sapiens, UniProt Q07820). The experiment in a line: Inhibition of Mcl-1 (172-327) (unknown origin) using BIOTIN-AHXGQVGRQLAIIGDDINR-amide peptide by TR-FRET based BAK peptide displacement assay.
Induced myeloid leukemia cell differentiation protein Mcl-1, sequence (Q07820 whole entry): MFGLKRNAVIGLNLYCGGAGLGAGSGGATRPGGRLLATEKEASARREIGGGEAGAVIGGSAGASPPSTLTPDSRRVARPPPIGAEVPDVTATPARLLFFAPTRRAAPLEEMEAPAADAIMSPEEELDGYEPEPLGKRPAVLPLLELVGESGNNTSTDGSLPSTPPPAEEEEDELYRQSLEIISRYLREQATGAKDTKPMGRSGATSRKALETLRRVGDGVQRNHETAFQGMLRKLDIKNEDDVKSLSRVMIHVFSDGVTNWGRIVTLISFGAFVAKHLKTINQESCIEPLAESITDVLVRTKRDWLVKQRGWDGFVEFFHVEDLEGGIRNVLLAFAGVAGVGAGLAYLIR
The test system of data set [2] is NCI-H929. The experiment in a line: Cytotoxicity against human NCI-H929 cells assessed as cell viability measured after 72 hrs incubation by CellTiterGlo assay. It is filed as functional, cell-based. The settings on record: NCI-H929, 72 h.
The next data set addresses Bcl-2-like protein 1 (Homo sapiens, UniProt Q07817). Kind of data set: Inhibition of Bcl-xl (1-212) (unknown origin) using BIOTIN-AHXAHXGQVGRQLAIIGDDINR-amide peptide by TR-FRET based BAK peptide displacement assay.
The nature of data set [3]: Kinetic solubility of the compound in pH 7.4 buffer measured after 24 hrs by LC-UV analysis. The settings on record: read-out: Kinetic_solubility. It counts as physicochemical.
Data set [4] relates to NCI-H929. The experiment in a line: Cytotoxicity against human NCI-H929 cells assessed as […] by measuring caspase 3/7 activity measured after 6 hrs by luminescence assay. It counts as functional, cell-based. The settings on record: NCI-H929, 6 h.
Data set [5] can be described thus: Passive permeability of compound at pH 7.4 incubated for 4 hrs by PAMPA assay. It is filed as ADME. The settings on record: read-out: permeability.
Data set [6] is described as follows: Metabolic stability in mouse liver S9 fraction assessed as intrinsic clearance. It is filed as ADME, subcellular. The settings on record: read-out: CLH.
Data set [7] is described as follows: Metabolic stability in rat liver S9 fraction assessed as intrinsic clearance. It counts as ADME, subcellular. The settings on record: read-out: CLH.
Data set [8] is described as follows: Metabolic stability in human liver S9 fraction assessed as intrinsic clearance. It is filed as ADME, subcellular. The settings on record: for microsomal CLint: liver S9 fraction, read-out: CLH.
Data set [9] in a line: Metabolic stability in mouse liver S9 fraction assessed as half life. It counts as ADME, subcellular.
Data set [10] can be described thus: Metabolic stability in rat liver S9 fraction assessed as half life. It is filed as ADME, subcellular.
The nature of data set [11]: Metabolic stability in human liver S9 fraction assessed as half life. It is filed as ADME, subcellular. The settings on record: for half-life: liver S9 fraction.

As usually defined, the IC50 is the point on the concentration scale where inhibition reaches its midpoint. What is called half-life is the time in which the quantity being followed falls by half.

Values after ≈ are worked out from the molar mass of the structure shown.

Bcl-2-like protein 1, sequence (Q07817 whole entry): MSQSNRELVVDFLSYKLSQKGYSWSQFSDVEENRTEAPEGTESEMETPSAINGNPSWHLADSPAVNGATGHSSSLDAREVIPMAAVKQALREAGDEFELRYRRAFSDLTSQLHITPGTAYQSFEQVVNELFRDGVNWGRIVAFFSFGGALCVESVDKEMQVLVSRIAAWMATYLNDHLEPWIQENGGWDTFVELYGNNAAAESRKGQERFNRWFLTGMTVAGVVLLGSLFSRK

With `CCOc1cc(Oc2cc(C)c(Cl)c(C)c2)cc2c1OCC(=O)N[C@H]1CC[C@H](CC1)CC(=O)N[C@@H](c1ccccc1)C(=O)N[C@H](Cc1ccccc1)C(=O)NCCc1ccc(cc1)OC2`, the IC50 in data set [1] is 1500 nM; in the data set on NCI-H929 [2] it was 41 nM; at Bcl-2-like protein 1 it was more than 10000 nM; in the data set on NCI-H929 [4], 60 nM. In addition, the solubility kinetic at 24 h in [3] was less than 2 µM.

`CCOc1cc(Oc2cc(C)c(Cl)c(C)c2)cc2c1OCC(=O)N[C@H]1CC[C@H](CC1)CC(=O)N[C@@H](CC(C)C)C(=O)N[C@H](Cc1cccnc1)C(=O)N[C@H](C(=O)O)Cc1ccc(cc1)OC2`: the 50% inhibitory concentration (IC50) in data set [1] is 31000 nM; with NCI-H929 [4] it was 1100 nM. In addition, the solubility kinetic at 24 h in [3] is more than 80 µM. The Papp at 4 h in data set [5] came out at 5.3 ×10⁻⁶ cm/s.

Turning to `CCOc1cc(Oc2cc(C)cc(C)c2)cc2c1OCC(=O)N[C@H]1CC[C@H](CC1)CC(=O)N[C@@H](c1ccccc1)C(=O)N[C@H](Cc1ccccc1)C(=O)NCCc1ccc(cc1)OC2`, the IC50 in [1] is 1600 nM; with NCI-H929 [2], 56 nM; on Bcl-2-like protein 1, more than 10000 nM.

As to `CCOc1cccc2c1OCC(=O)N[C@H]1CC[C@H](CC1)CC(=O)N[C@@H](c1ccccc1)C(=O)N[C@H](Cc1ccccc1)C(=O)N[C@H](C(=O)NC)Cc1ccc(cc1)NC2`, the concentration for half-maximal inhibition (IC50) in [1] is 80 nM; at Bcl-2-like protein 1, more than 10000 nM. The solubility kinetic at 24 h in data set [3] was less than 2 µM. The microsomal CLint stood at 35 µL/min/mg in [6] and 18 µL/min/mg in data set [7]. For the same compound, the CLH in data set [8] (s9) came out at 17 µL/min/mg. For the same compound, the half-life in data set [9] is 20 min; in data set [10], 39 min. Besides, in data set [11] (s9), the t1/2 turned out to be 17 min.

Turning to `CCOc1cccc2c1OCC(=O)N[C@H]1CC[C@H](CC1)CC(=O)N[C@@H](c1ccccc1)C(=O)N[C@H](Cc1ccccc1)C(=O)N[C@H](C(=O)NC)Cc1ccc(cc1)OC2`, the half-inhibitory concentration (IC50) was 50 nM in [1] and more than 10000 nM on Bcl-2-like protein 1. The solubility kinetic at 24 h in [3] is less than 2 µM. In addition, the figures for the microsomal CLint in data set [6], in data set [7] and in data set [8] were 36 µL/min/mg, 15 µL/min/mg and 19 µL/min/mg, respectively. The half-life in data set [9] stood at 19 min; in data set [10] it was 47 min; in data set [11] it was 37 min.

As for `CCOc1cc(Oc2cc(C)c(Cl)c(C)c2)cc2c1OCC(=O)N[C@H]1CC[C@H](CC1)CC(=O)N[C@@H](c1ccccc1)C(=O)N[C@H](Cc1cccnc1)C(=O)N[C@H](C(=O)O)Cc1ccc(cc1)OC2`, the IC50 in [1] stood at 13000 nM; with NCI-H929 [4], 480 nM. Moreover, the solubility kinetic at 24 h in data set [3] was more than 80 µM. Besides, in [5], the Papp at 4 h turned out to be 3.9 ×10⁻⁶ cm/s.

Turning to `CCOc1cc(Oc2cc(C)c(Cl)c(C)c2)cc2c1OCC(=O)N[C@H]1CC[C@H](CC1)CC(=O)N[C@@H](c1ccccc1)C(=O)N[C@H](Cc1ccccc1)C(=O)NCCc1ccc(cc1)NC2`, the IC50 amounted to 5300 nM in [1] and 57 nM in the data set with NCI-H929 [4]. Besides, the solubility kinetic at 24 h in data set [3] is less than 2 µM.

For the compound `CCOc1cc(Oc2cc(C)cc(C)c2)cc2c1OCC(=O)N[C@H]1CC[C@H](CC1)CC(=O)N[C@@H](c1ccccc1)C(=O)N[C@H](Cc1ccccc1)C(=O)N[C@H](C(=O)O)Cc1ccc(cc1)NC2`, the IC50 in [1] is 7700 nM; in the data set with NCI-H929 [4], 630 nM. In addition, the solubility kinetic at 24 h in [3] is more than 80 µM. In data set [5], the Papp at 4 h was found to be 2 ×10⁻⁶ cm/s.

On to `CCOc1cc(Oc2cc(C)cc(C)c2)cc2c1OCC(=O)N[C@H]1CC[C@H](CC1)CC(=O)N[C@@H](c1ccccc1)C(=O)N[C@H](Cc1ccccc1)C(=O)NCCc1ccc(cc1)NC2`, for which the IC50 in data set [1] turned out to be 9100 nM; in the data set on NCI-H929 [4] it was 94 nM. In addition, the solubility kinetic at 24 h in [3] was less than 2 µM.

On to `CCOc1cc(Oc2cc(C)c(Cl)c(C)c2)cc2c1OCC(=O)N[C@H]1CC[C@H](CC1)CC(=O)N[C@@H](c1ccccc1)C(=O)N[C@H](Cc1cccnc1)C(=O)NCCc1ccc(cc1)OC2`, for which the concentration for half-maximal inhibition (IC50) came to 14000 nM in data set [1] and 45 nM in the data set on NCI-H929 [4]. Also, the solubility kinetic at 24 h in data set [3] was less than 2 µM. In addition, the Papp at 4 h in data set [5] stood at 5.5 ×10⁻⁶ cm/s.

With `CCOc1cc(Oc2cc(C)c(Cl)c(C)c2)cc2c1OCC(=O)N[C@H]1CC[C@H](CC1)CC(=O)N[C@@H](CCS(C)(=O)=O)C(=O)N[C@H](Cc1ccncc1)C(=O)NCCc1ccc(cc1)OC2`, the IC50 in data set [1] is 5300 nM; in the data set on NCI-H929 [4], more than 10000 nM. Also, the solubility kinetic at 24 h in data set [3] was less than 2 µM.

As to `CCOc1cccc2c1OCC(=O)N[C@H]1CC[C@H](CC1)CC(=O)N[C@@H](c1ccccc1)C(=O)N[C@H](Cc1ccccc1)C(=O)NCCc1ccc(cc1)OC2`, the 50% inhibitory concentration (IC50) in data set [1] was 130 nM; in the data set on NCI-H929 [2], more than 10000 nM; on Bcl-2-like protein 1, more than 10000 nM. For the same compound, the solubility kinetic at 24 h in [3] is less than 2 µM. Further, the microsomal CLint is 41 µL/min/mg in data set [6], 30 µL/min/mg in [7] and 82 µL/min/mg in [8]. Further, the half-life turned out to be 17 min in data set [9], 23 min in [10] and 8 min in [11].

As for `CCOc1cc(Oc2cc(C)c(Cl)c(C)c2)cc2c1OCC(=O)N[C@H]1CC[C@H](CC1)CC(=O)N[C@@H](CC(C)C)C(=O)N[C@H](Cc1cccnc1)C(=O)N[C@@H](C(=O)O)Cc1ccc(cc1)OC2`, the values for the IC50 (in data set [1]; in the data set with NCI-H929 [4]) were 16000 nM and 410 nM, respectively. Further, the solubility kinetic at 24 h in [3] worked out at 11 µM (≈ 10.2 µg/mL). Further, the Papp at 4 h in data set [5] was 1.5 ×10⁻⁶ cm/s.

Turning to `CCOc1cc(Oc2cc(C)c(Cl)c(C)c2)cc2c1OCC(=O)N[C@H]1CC[C@H](CC1)CC(=O)N[C@@H](c1ccccc1)C(=O)N[C@H](Cc1ccccc1)C(=O)N[C@H](C(=O)O)Cc1ccc(cc1)NC2`, the IC50 in [1] is 5700 nM; in the data set on NCI-H929 [4], 1100 nM. In addition, in data set [3], the solubility kinetic at 24 h is more than 80 µM. In addition, the Papp at 4 h in data set [5] was less than 1 ×10⁻⁶ cm/s.

As to `CCOc1cc(Oc2cc(C)c(Cl)c(C)c2)cc2c1OCC(=O)N[C@H]1CC[C@H](CC1)CC(=O)N[C@@H](c1ccccc1)C(=O)N[C@H](Cc1ccncc1)C(=O)NCCc1ccc(cc1)OC2`, the IC50 in data set [1] was determined as 5300 nM; in the data set on NCI-H929 [4] it was 35 nM. In [3], the solubility kinetic at 24 h was less than 2 µM. Also, the Papp at 4 h in data set [5] was less than 1 ×10⁻⁶ cm/s.

On to `CCOc1cc(Oc2cc(C)c(Cl)c(C)c2)cc2c1OCC(=O)N[C@H]1CC[C@H](CC1)CC(=O)N[C@@H](c1ccccc1)C(=O)N1CCC[C@@H]1C(=O)NCCc1ccc(cc1)OC2`, for which the concentration for half-maximal inhibition (IC50) in data set [1] was found to be 18000 nM; in the data set with NCI-H929 [4], 540 nM. The solubility kinetic at 24 h in [3] was less than 2 µM. The Papp at 4 h in [5] was 7.3 ×10⁻⁶ cm/s.
